Patent US20250129021A1, “SMALL MOLECULE PROTEIN SYNTHESIS MODULATORS” (Interdict Bio, Inc., priority 2023, published 2025)

Key:
Assay type in all cases: biochemical
MYC = assay: In vitro transcription-translation (IVTT) assay, MYC reporter; details: IVTT assay, HeLa S3 lysate, MYC reporter, normalized sfGFP/mCherry ratio; half-log dilutions 30 μM-0.1 μM, 2 hrs at 30° C.
Summary of the method: (§1)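 Reporter: mCherry, P2A, then 3×FLAG-target peptide-sfGFP fusion, IRES-initiated; HeLa S3 lysate IVTT; cpd dilutions 30 μM−0.1 μM half-log in 100% DMSO (dilution-plate conc); DNA added last; 2 h, 30° C; PBS quench.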

CCND1 = assay: In vitro transcription-translation (IVTT) assay, CCND1 reporter; details: IVTT assay, HeLa S3 lysate, sfGFP/mCherry ratio
Summary of the method: as §1

NFKB1 = assay: In vitro transcription-translation (IVTT) assay, NFKB1 reporter; details: HeLa S3 lysate, sfGFP/mCherry ratio
Procedure: In vitro transcription-translation assay setup: Each assay includes a master mix containing lysate and shared components, a 96-well plate containing compound titrations for testing, a 96-well DNA plate with reporter constructs to be tested, 96-well skirted PCR plates, and 96-well flat-bottom, black, fluorescent assay plates. Reaction materials setup: (A) Master mix—15 mL conical tube (3 mL of HeLa S3 Lysate described above; 0.6 mL of ThermoFisher Accessory Proteins (#88882); 1.2 ml of ThermoFisher Reaction Mix (#88882); 0.54 mL of nuclease-free Water); (B) 96-Well Master Mix+Compound Plate (Half-log dilutions (30 μM−0.1 μM) of 4 compounds of interest are prepared in 100% DMSO); 96-Well DNA Plate (Five DNA constructs are plated into single columns within the plate. Row 1 of the column contains nuclease free H2O, all other wells contain 110 ng/μL plasmid DNA). Reactions are started by mixing 155 μL of master mix and 3.5 μL of compound serial dilutions, then 9.1 μL of master mix+compound mixture is aliquoted across 5 96-well plates. Reactions begin with final addition of 2 μL of DNA for a 11.1 μL reaction volume in each well. The entire plate is sealed, and incubated for 2 hrs at 30° C. After 2 hrs, quench the assay using 45 μL of PBS, and transfer 50 μL to a flat-bottom black microplate Quantify the sfGFP and mCherry signals from each well on each plate, taking 3 reads of each plate, and perform data analysis below.
In vitro transcription-translation assay data analysis: Each plate is read three times in channels for both sfGFP and mCherry signals. The average signal across these 3 reads is then calculated for further analysis. Control wells containing no DNA reporter are subtracted from reporter wells in the same column to remove auto-fluorescence of the lysate. Then, the ratio of sfGFP/mCherry is calculated per well, and these ratios are averaged across the triplicate experiments on the same plate. Finally, the ratio of each titration concentration is normalized to the no drug control to create the normalized stalling metric. The error on this measurement is determined by propagating error through the averaging and normalization steps. Values are plotted and fit for IC50 determination for each test sequence and titration of compound.

IC50 (CCND1) [µM]	IC50 (NFKB1) [µM]	Molecule	IC50 (MYC) [µM]
< 10	< 10	O=C(NCCC(O)C(F)(F)F)O[C@@H]1[C@@H](O)CN[C@@H]1Cc1ccc(-c2cnco2)cc1 (stereo partly drawn) [V192868, (2R,3S,4S)-4-hydroxy-2-{[4-(1,3-oxazol-5-yl)phenyl]methyl}pyrrolidin-3-yl N-(4,4,4-trifluoro-3-hydroxybutyl)carbamate]	< 10
< 10	< 10	O=C(NCc1cccc(F)c1)O[C@@H]1[C@@H](O)CN[C@@H]1Cc1ccc(-c2cnc(N3CC(F)(F)C3)s2)cc1 [V192410, (2R,3S,4S)-2-({4-[2-(3,3-difluoroazetidin-1-yl)-1,3-thiazol-5-yl]phenyl}methyl)-4-hydroxypyrrolidin-3-yl N-[(3-fluorophenyl)methyl]carbamate]	< 10
< 10	< 10	(2R,3S,4S)-2-(2,1,3-benzoxadiazol-5-ylmethyl)-4-hydroxypyrrolidin-3-ylN-[(3-fluorophenyl)methyl]carbamate [V192383]	< 10
< 10	< 10	O=C(NCc1cccc(F)c1)O[C@@H]1[C@@H](O)CN[C@@H]1Cc1ccc(C(F)F)cc1 [V192274, (2R,3S,4S)-2-{[4-(difluoromethyl)phenyl]methyl}-4-hydroxypyrrolidin-3-yl N-[(3-fluorophenyl)methyl]carbamate]	< 10
< 10	< 10	O=C(NCC[C@@H]1CCCN1)O[C@@H]1[C@@H](O)CN[C@@H]1Cc1ccc(-c2ccns2)cc1 [V192331, (2R,3S,4S)-4-hydroxy-2-{[4-(1,2-thiazol-5-yl)phenyl]methyl}pyrrolidin-3-yl N-{2-[(2S)-pyrrolidin-2-yl]ethyl}carbamate]	< 10
< 10	< 10	O=C(NCc1cccc(F)c1)O[C@@H]1[C@@H](O)CN[C@@H]1Cc1ccc(-c2cn3ccnc3s2)cc1 [V192127, (2R,3S,4S)-4-hydroxy-2-[(4-{imidazo[2,1-b][1,3]thiazol-2-yl}phenyl)methyl]pyrrolidin-3-yl N-[(3-fluorophenyl)methyl]carbamate]	< 10
< 10	< 10	O=C(NCC[C@@H]1C[C@H](F)CN1)O[C@@H]1[C@@H](O)CN[C@@H]1Cc1ccc(-c2cnco2)cc1 [V192917, (2R,3S,4S)-4-hydroxy-2-{[4-(1,3-oxazol-5-yl)phenyl]methyl}pyrrolidin-3-yl N-{2-[(2R,4S)-4-fluoropyrrolidin-2-yl]ethyl}carbamate]	< 10
< 10	< 10	O=C(NCC[C@H]1CCNCC1(F)F)O[C@@H]1[C@@H](O)CN[C@@H]1Cc1ccc(-c2cnco2)cc1 [V192894, (2R,3S,4S)-4-hydroxy-2-{[4-(1,3-oxazol-5-yl)phenyl]methyl}pyrrolidin-3-yl N-{2-[(4R)-3,3-difluoropiperidin-4-yl]ethyl}carbamate]	< 10
< 10	< 10	O=C(NCC[C@@H]1CC(F)CN1)O[C@@H]1[C@@H](O)CN[C@@H]1Cc1ccc(-c2cnco2)cc1 (stereo partly drawn) [V192916, (2R,3S,4S)-4-hydroxy-2-{[4-(1,3-oxazol-5-yl)phenyl]methyl}pyrrolidin-3-yl N-{2-[(2R)-4-fluoropyrrolidin-2-yl]ethyl}carbamate]	< 10
10 to 20	< 10	O=C(NCc1cccc(F)c1)O[C@@H]1[C@@H](O)CN[C@@H]1Cc1ccc(-c2cnc(C(F)F)s2)cc1 [V192310, (2R,3S,4S)-2-({4-[2-(difluoromethyl)-1,3-thiazol-5-yl]phenyl}methyl)-4-hydroxypyrrolidin-3-yl N-[(3-fluorophenyl)methyl]carbamate]	< 10
< 10	< 10	O=C(NCCC12CNC(C1)C2)O[C@@H]1[C@@H](O)CN[C@@H]1Cc1ccc(-c2cnco2)cc1 [V192849, (2R,3S,4S)-4-hydroxy-2-{[4-(1,3-oxazol-5-yl)phenyl]methyl}pyrrolidin-3-yl N-(2-{2-azabicyclo[2.1.1]hexan-4-yl}ethyl)carbamate]	< 10
< 10	< 10	O=C(NCc1cccc(F)c1)O[C@@H]1[C@@H](O)CN[C@@H]1Cc1ccc(-c2nncs2)cc1 [V192411, (2R,3S,4S)-4-hydroxy-2-{[4-(1,3,4-thiadiazol-2-yl)phenyl]methyl}pyrrolidin-3-yl N-[(3-fluorophenyl)methyl]carbamate]	< 10
< 10	< 10	O=C(NCc1cncc(N2CCC2)c1)O[C@@H]1[C@@H](O)CN[C@@H]1Cc1ccc(-c2cnco2)cc1 [V192286, (2R,3S,4S)-4-hydroxy-2-{[4-(1,3-oxazol-5-yl)phenyl]methyl}pyrrolidin-3-yl N-{[5-(azetidin-1-yl)pyridin-3-yl]methyl}carbamate]	< 10
< 10	< 10	O=C(NCc1cc(F)c(O)c(F)c1)O[C@@H]1[C@@H](O)CN[C@@H]1Cc1ccc(-c2cnco2)cc1 [V192433, (2R,3S,4S)-4-hydroxy-2-{[4-(1,3-oxazol-5-yl)phenyl]methyl}pyrrolidin-3-yl N-[(3,5-difluoro-4-hydroxyphenyl)methyl]carbamate]	< 10
< 10	< 10	O=C(NCc1cccc(F)c1)O[C@@H]1[C@@H](O)CN[C@@H]1Cc1ccc(-c2cnco2)nc1 [V192862, (2R,3S,4S)-4-hydroxy-2-{[6-(1,3-oxazol-5-yl)pyridin-3-yl]methyl}pyrrolidin-3-yl N-[(3-fluorophenyl)methyl]carbamate]	< 10
< 10	< 10	O=C(NCc1cccc(F)c1)O[C@@H]1[C@@H](O)CN[C@@H]1Cc1ccc(Oc2cccnc2)cc1 [V192398, (2R,3S,4S)-4-hydroxy-2-{[4-(pyridin-3-yloxy)phenyl]methyl}pyrrolidin-3-yl N-[(3-fluorophenyl)methyl]carbamate]	< 10
< 10	< 10	O=C(NCc1cccc(OC(F)(F)F)c1)O[C@@H]1[C@@H](O)CN[C@@H]1Cc1ccc(-c2cnco2)cc1 [V192276, (2R,3S,4S)-4-hydroxy-2-{[4-(1,3-oxazol-5-yl)phenyl]methyl}pyrrolidin-3-yl N-{[3-(trifluoromethoxy)phenyl]methyl}carbamate]	< 10
< 10	< 10	CNC1(c2cccc(CNC(=O)O[C@@H]3[C@@H](O)CN[C@@H]3Cc3ccc(-c4cnco4)cc3)c2)CC1 [V192289, (2R,3S,4S)-4-hydroxy-2-{[4-(1,3-oxazol-5-yl)phenyl]methyl}pyrrolidin-3-yl N-({3-[1-(methylamino)cyclopropyl]phenyl}methyl)carbamate]	< 10
< 10	< 10	O=C(NCc1cnsc1)O[C@@H]1[C@@H](O)CN[C@@H]1Cc1ccc(-c2cnco2)cc1 [V192110, (2R,3S,4S)-4-hydroxy-2-(4-(oxazol-5-yl)benzyl)pyrrolidin-3-yl (isothiazol-4-ylmethyl)carbamate]	< 10
< 10	< 10	CNC1(c2ccc(CNC(=O)O[C@@H]3[C@@H](O)CN[C@@H]3Cc3ccc(-c4cnco4)cc3)cc2)CC1 [V192288, (2R,3S,4S)-4-hydroxy-2-{[4-(1,3-oxazol-5-yl)phenyl]methyl}pyrrolidin-3-yl N-({4-[1-(methylamino)cyclopropyl]phenyl}methyl)carbamate]	< 10
< 10	< 10	O=C(NCc1cccc(F)c1)O[C@@H]1[C@@H](O)CN[C@@H]1Cc1ccc(-c2cn3cc(C(F)(F)F)nc3s2)cc1 [V192874, (2R,3S,4S)-4-hydroxy-2-({4-[6-(trifluoromethyl)imidazo[2,1-b][1,3]thiazol-2-yl]phenyl}methyl)pyrrolidin-3-yl N-[(3-fluorophenyl)methyl]carbamate]	< 10
10 to 20	< 10	O=C(NCC[C@@H]1CCCN1)O[C@@H]1[C@@H](O)CN[C@@H]1Cc1ccc(-c2cnco2)c(F)c1 [V192903, (2R,3S,4S)-2-{[3-fluoro-4-(1,3-oxazol-5-yl)phenyl]methyl}-4-hydroxypyrrolidin-3-yl N-{2-[(2S)-pyrrolidin-2-yl]ethyl}carbamate]	< 10
